{"source": "patent US6767889B1", "about": "“Inhibition of angiogenesis by high molecular weight kininogen and peptide analogs thereof” (Temple University of the Commonwealth System of Higher …, priority 1998, dated 2004)", "system": "human umbilical vein endothelial cells (HUVEC)", "note": "No end group written: not given here."}
{"substance": "GHGHGHGKHKNKGKKN-OH [SEQ ID NO:8, Gly-His-Gly-His-Gly-His-Gly-Lys-His-Lys-Asn-Lys-Gly-Lys-Lys-Asn]", "values": [{"measurement": "IC50", "value": 8, "unit": "µM"}]}
{"substance": "HKNKGKKNGKHNGWKT-OH [SEQ ID NO:9, His-Lys-Asn-Lys-Gly-Lys-Lys-Asn-Gly-Lys-His-Asn-Gly-Trp-Lys-Thr]", "values": [{"measurement": "IC50", "value": 14, "unit": "µM"}]}
